Consider 17 compounds from patent US7763602B2, “Pyrrole derivatives as antimycobacterial compounds” (priority 2002, dated 2010).

In brackets after ≈: the same amount, converted by molar mass.

Common to all, as to assay type: cell-based, Mycobacterium tuberculosis
Assay [1] relates to M. tuberculosis clinical isolates, sensitive. Briefly: microbe, parasite or virus in culture. Conditions: for MIC (μg/ml) against Clinical isolates Sensitive: Table I, agar dilution; for MIC: Mycobacterium tuberculosis, read-out: MIC (μg/ml) against Clinical isolates Sensitive.
Another assay relates to M. tuberculosis 27294. Briefly: In vitro agar dilution assay (MIC), reference strain. Conditions: for MIC (μg/ml) against M. tuberculosis-27294: Table I; for MIC: Mycobacterium tuberculosis, 27294, Table I, read-out: MIC (μg/ml) against M. tuberculosis-27294. For orientation: In agar dilution the substance is mixed into plates at graded concentrations.
For assay [2], the system named is M. tuberculosis H37Rv ATCC 27294. Put plainly: In vitro growth inhibition assay, BACTEC 460 TB system. Details: key: +: If ΔGI of test vial is less than that of the control vial the culture was sensitive to the test compound. Conditions: final concentration 6.25 μg/ml.

`Cc1c(CN2CCN(Cc3ccccc3)CC2)cc(-c2ccccc2)n1NC(=O)c1ccncc1` [compound 15, N-(2-methyl-5-phenyl-3-{[4-benzylpiperazinyl]methyl}pyrrolyl)-4-pyridylcarboxamide]: the “MIC (μg/ml) against Clinical isolates Sensitive” value in assay [1] was 0.5 to 1.0 µg/mL. Further, the “MIC (μg/ml) against M. tuberculosis-27294” value against M. tuberculosis 27294 stood at 0.5 µg/mL (≈ 1.07 µM). Moreover, the “Growth inhibition of M. tuberculosis 27294” value (shortened to “Growth inhibition”) in assay [2] is reported as “+”.
Regarding `Cc1c(CN2CCN(Cc3ccc4c(c3)OCO4)CC2)cc(-c2ccc(Cl)cc2)n1-c1ccc(Cl)cc1` [Compound No. 8, 5-[(4-{[1,5-bis(4-chlorophenyl)-2-methylpyrrol-3-yl]methyl}piperazinyl)methyl]-2H-benzo[d]1,3-dioxolane], in assay [1], the “MIC (μg/ml) against Clinical isolates Sensitive” value was 0.5 to 1.0 µg/mL. Moreover, the “MIC (μg/ml) against M. tuberculosis-27294” value in the assay on M. tuberculosis 27294 was 1.0 µg/mL (≈ 1.87 µM). Besides, in assay [2], the “Growth inhibition” value is “+”.
With `Cc1c(CN2CCN(c3ccc(F)cc3)CC2)cc(-c2ccccc2)n1NC(=O)c1ccncc1` [compound 11, N-(3-{[4-(4-fluorophenyl)piperazinyl]methyl}-2-methyl-5-phenylpyrrolyl)-4-pyridylcarboxamide], in assay [1], the “MIC (μg/ml) against Clinical isolates Sensitive” value lay within 0.5 to 1.0 µg/mL. The “MIC (μg/ml) against M. tuberculosis-27294” value in the assay with M. tuberculosis 27294 was found to be 1.0 µg/mL (≈ 2.13 µM). For the same compound, in assay [2], the “Growth inhibition” value was “+”.
For `Cc1c(CN2CCN(C(c3ccccc3)c3ccccc3)CC2)cc(-c2ccccc2)n1NC(=O)c1cnccn1` [compound 30, N-(3-{[4-(diphenylmethyl)piperazinyl]methyl}-2-methyl-5-phenylpyrrolyl)-pyrazin-2-ylcarboxamide] the same measures were 2.0 to 4.0 µg/mL, 2.0 µg/mL (≈ 3.69 µM) and “+”.
For `Cc1c(CN2CCN(c3ccccn3)CC2)cc(-c2ccc(Cl)cc2)n1-c1ccc(F)cc1F` [compound 47, 1-{[1-(2,4-difluorophenyl)-5-(4-chlorophenyl)-2-methylpyrrol-3-yl]methyl}-4-(2-pyridyl)piperazine], the MIC was 0.25 to 1 µg/mL (≈ 0.522 to 2.09 µM) in assay [1] and 0.25 µg/mL (≈ 0.522 µM) in the assay on M. tuberculosis 27294. Also, in assay [2], the “Growth inhibition” value is on record as “+”.
With `Cc1c(CN2CCSCC2)cc(-c2ccccc2)n1NC(=O)c1ccncc1` [compound 21, N-[2-methyl-5-phenyl-3-(1,4-thiazaperhydroin-4-ylmethyl)pyrrolyl]-4-pyridyl carboxamide], the “MIC (μg/ml) against Clinical isolates Sensitive” value in assay [1] lay in the range of 0.5 to 1.0 µg/mL. Besides, the “MIC (μg/ml) against M. tuberculosis-27294” value with M. tuberculosis 27294 was found to be 0.5 µg/mL (≈ 1.27 µM). Also, in assay [2], the “Growth inhibition” value is recorded as “+”.
Consider `Cc1cc(CN2CCN(c3cccc(C(F)(F)F)c3)CC2)c(-c2ccccc2)n1-c1ccc(F)cc1F` [compound 57, 1-{[1-(2,4-difluorophenyl)-5-methyl-2-phenylpyrrol-3-yl]methyl}-4-(3-trifluoromethylphenyl)piperazine], for which the MIC (in assay [1]; in the assay on M. tuberculosis 27294) was over 16 µg/mL each time. Moreover, the “Growth inhibition” value in assay [2] is “+”.
On to `Cc1c(CN2CCN(Cc3ccc4c(c3)OCO4)CC2)cc(-c2ccccc2)n1NC(=O)c1cnccn1` [compound 29, N-(3-{[4-(2H-benzo[d]1,3-dioxolen-5-ylmethyl)piperazinyl]methyl}-2-methyl-5-phenylpyrrolyl)pyrazin-2-ylcarboxamide], for which the “MIC (μg/ml) against Clinical isolates Sensitive” value in assay [1] is over 16.0 µg/mL. Further, the “MIC (μg/ml) against M. tuberculosis-27294” value with M. tuberculosis 27294 is over 16.0 µg/mL. The “Growth inhibition” value in assay [2] is on record as “+”.
In the case of `Cc1c(CN2CCS(=O)(=O)CC2)cc(-c2ccccc2)n1-c1ccccc1` [compound 88], the “MIC (μg/ml) against Clinical isolates Sensitive” value in assay [1] was in the range of 1.0 to 4.0 µg/mL. Also, in the assay on M. tuberculosis 27294, the “MIC (μg/ml) against M. tuberculosis-27294” value was 0.5 µg/mL (≈ 1.31 µM). The “Growth inhibition” value in assay [2] is given as “+”.
As for `Cc1c(CN2CCSCC2)cc(-c2ccc(Cl)cc2)n1NC(=O)c1ccncc1` [compound 89, N-[5-(4-chlorophenyl)-2-methyl-3-(1,4-thiazaperhydroin-4-ylmethyl)pyrrolyl]-4-pyridylcarboxamide], the “MIC (μg/ml) against Clinical isolates Sensitive” value in assay [1] fell in the range of 2.0 to 8.0 µg/mL. The “MIC (μg/ml) against M. tuberculosis-27294” value against M. tuberculosis 27294 stood at 1.0 µg/mL (≈ 2.34 µM). For the same compound, in assay [2], the “Growth inhibition” value is “+”.
For `CCC(CO)n1c(-c2ccccc2)cc(CN2CCSCC2)c1C` (stereo not drawn) [compound 91, 2-[2-methyl-5-phenyl-3-(1,4-thiazaperhydroin-4-ylmethyl)pyrrolyl]butan-1-ol] the same measures were 4.0 to 8.0 µg/mL, 4.0 µg/mL (≈ 11.6 µM) and “+”.
For `COc1ccccc1N1CCN(Cc2cc(-c3ccccc3)n(NC(=O)c3ccncc3)c2C)CC1` [compound 13, N-(3-{[4-(2-methoxyphenyl)piperazinyl]methyl}-2-methyl-5-phenylpyrrolyl)-4-pyridylcarboxamide] the same measures were 0.5 to 2.0 µg/mL, 0.5 µg/mL (≈ 1.04 µM) and “+”.
For `COc1ccccc1N1CCN(Cc2cc(-c3ccccc3)n(-c3ccc(F)cc3F)c2C)CC1` [compound 52, 1-{[1-(2,4-difluorophenyl)-2-methyl-5-phenylpyrrol-3-yl]methyl}-4-(2-methoxyphenyl)piperazine], the MIC (in assay [1]; in the assay with M. tuberculosis 27294) was 8 µg/mL (≈ 16.9 µM) throughout. For the same compound, the “Growth inhibition” value in assay [2] is “+”.
Take `Cc1c(CN2CCN(c3ccccn3)CC2)cc(-c2ccc(Cl)cc2)n1-c1cccc2ccccc12` [compound 61, 1-{[5-(4-chlorophenyl)-2-methyl-1-naphthylpyrrol-3-yl]methyl}-4-(2-pyridyl) piperazine]: the “MIC (μg/ml) against Clinical isolates Sensitive” value in assay [1] is 4.0 to 8.0 µg/mL. Besides, in the assay with M. tuberculosis 27294, the “MIC (μg/ml) against M. tuberculosis-27294” value was found to be 4.0 µg/mL (≈ 8.11 µM). Besides, in assay [2], the “Growth inhibition” value is reported as “+”.
On to `Cc1c(CN2CCN(c3cccc(C(F)(F)F)c3)CC2)cc(-c2ccc(Cl)cc2)n1NC(=O)c1cnccn1` [compound 39, N-(5-(4-chlorophenyl)-3-{[4-(3-trifluoromethylphenyl)piperazinyl]methyl}-2-methylpyrrolyl)pyrazin-2-ylcarboxamide], for which, in assay [1], the “MIC (μg/ml) against Clinical isolates Sensitive” value fell in the range of 4.0 to 8.0 µg/mL. In the assay with M. tuberculosis 27294, the “MIC (μg/ml) against M. tuberculosis-27294” value stood at 4.0 µg/mL (≈ 7.21 µM). The “Growth inhibition” value in assay [2] is reported as “+”.
`Cc1c(CN2CCN(c3cccc(C(F)(F)F)c3)CC2)cc(-c2ccc(Cl)cc2)n1-c1cccc2ccccc12` [compound 60, 1-{[5-(4-chlorophenyl)-2-methyl-1-naphthylpyrrol-3-yl]methyl}-4-(3-trifluoromethylphenyl)piperazine]: the “MIC (μg/ml) against Clinical isolates Sensitive” value in assay [1] lay in the range of 2.0 to 8.0 µg/mL. Besides, in the assay on M. tuberculosis 27294, the “MIC (μg/ml) against M. tuberculosis-27294” value is 4.0 µg/mL (≈ 7.14 µM). Further, the “Growth inhibition” value in assay [2] is reported as “+”.
For `Cc1cc(CN2CCN(c3ccc(F)cc3)CC2)c(-c2ccccc2)n1NC(=O)c1ccncc1` [compound 22, N-(3-{[4-(4-fluorophenyl)piperazinyl]methyl}-5-methyl-2-phenylpyrrolyl)-4-pyridylcarboxamide] the same measures were 2.0 to 4.0 µg/mL, 2.0 µg/mL (≈ 4.26 µM) and “+”.
